Patent US5763208A, “Oligonucleotides and their analogs capable of passive cell membrane permeation” (Gilead Sciences, Inc., priority 1996, dated 1998)
Like-named read-outs stand apart in the source and are kept apart here.

Assays:
[1] = cited from earlier work
[2] = pH dependence of fluorescence of fluorescein; type: physicochemical
Description: A preferred fluor is fluorescein.

[3] = test system: most of the cell types tested
Description: Within 15 min after washing the dye away from the exterior of the cells, the intracellular pool of the dye is pumped out, either by an organic anion pump mechanism or by diffusion.
The cell staining assay utilized various cell lines and included P388D1 (mouse macrophage), HEPG2 (human liver), CV1 (monkey epithelial), ccd50sk (untransformed human fibroblast), Rat2 (rat fibroblast), MDCK (kidney cells), L6 (rat myoblast), L cells (mouse fibroblast), HeLa (human adenocarcinoma), skov3 (human ovarian adenocarcinoma), and skbr3 (human breast adenocarcinoma) cells. Other cell lines that were used included Jurkat (human T cell), H9 (human T cell), NIH3T3 (mouse fibroblast), HL60 (human T cell), and H4 (rat liver). All cell lines are commercially available from the American Type Culture Collection, Rockville, Md.
Cells were grown on 25 mm-#1 coverslips in media containing 25 mM HEPES, pH 7.3, (which helps maintain pH on the microscope) without phenol red (which can lead to high background fluorescence when working with living cells). Coverslips were used so that the high numerical aperture oil-immersion lenses on the microscope could be used. The coverslips were mounted onto "viewing chambers": 6-well petri dishes which have 22 mm holes drilled into the bottom. […]

[4] = known values of standard compounds used for the standard curve (Veith et al.)

## Nc1ccccc1O [2-aminophenol]
[1]; octanol/water
  Log Poct: 0.62

## Nc1cccc(O)c1 [3-aminophenol]
[1]; [4]
  Log Poct: 0.17

## Nc1ccccc1 [aniline]
[1]; [4]
  Log Poct: 0.9

## O=C1OC2(c3ccc(O)cc3Oc3cc(O)ccc32)c2ccccc21 [fluorescein]
[2]; pH 5.0
  net charge: net neutral charge
[2]; pH 5.0 vs pH 7.5
  fluorescence at pH 5.0 relative to pH 7.5: greater than an order of magnitude less fluorescent
[2]; pH 7.5
  net charge: net negative charge
[3]
  time in which the intracellular pool of the dye is pumped out: ≤ 15 min
[3]; not told
  cell permeation of dye: permeant to most of the cell types tested

## Nc1ccccc1[N+](=O)[O-] [o-nitroaniline]
[1]; [4]
  Log Poct: 1.44
